For assay [1], the system named is cholesterol synthesis. As to conditions: disclosed by Nakatani, Farmashia 1988; cited from earlier work.
Assay [2] concerns the target T1, HMG-CoA reductase (Rattus norvegicus, UniProt P51639).
T1 construct: Liver microsomes was prepared by using Sprague-Dawley rats; from tissue; host or cells: liver microsomes of Sprague-Dawley rats fed 2% cholestyramine diet
T1 sequence (P51639 1-887): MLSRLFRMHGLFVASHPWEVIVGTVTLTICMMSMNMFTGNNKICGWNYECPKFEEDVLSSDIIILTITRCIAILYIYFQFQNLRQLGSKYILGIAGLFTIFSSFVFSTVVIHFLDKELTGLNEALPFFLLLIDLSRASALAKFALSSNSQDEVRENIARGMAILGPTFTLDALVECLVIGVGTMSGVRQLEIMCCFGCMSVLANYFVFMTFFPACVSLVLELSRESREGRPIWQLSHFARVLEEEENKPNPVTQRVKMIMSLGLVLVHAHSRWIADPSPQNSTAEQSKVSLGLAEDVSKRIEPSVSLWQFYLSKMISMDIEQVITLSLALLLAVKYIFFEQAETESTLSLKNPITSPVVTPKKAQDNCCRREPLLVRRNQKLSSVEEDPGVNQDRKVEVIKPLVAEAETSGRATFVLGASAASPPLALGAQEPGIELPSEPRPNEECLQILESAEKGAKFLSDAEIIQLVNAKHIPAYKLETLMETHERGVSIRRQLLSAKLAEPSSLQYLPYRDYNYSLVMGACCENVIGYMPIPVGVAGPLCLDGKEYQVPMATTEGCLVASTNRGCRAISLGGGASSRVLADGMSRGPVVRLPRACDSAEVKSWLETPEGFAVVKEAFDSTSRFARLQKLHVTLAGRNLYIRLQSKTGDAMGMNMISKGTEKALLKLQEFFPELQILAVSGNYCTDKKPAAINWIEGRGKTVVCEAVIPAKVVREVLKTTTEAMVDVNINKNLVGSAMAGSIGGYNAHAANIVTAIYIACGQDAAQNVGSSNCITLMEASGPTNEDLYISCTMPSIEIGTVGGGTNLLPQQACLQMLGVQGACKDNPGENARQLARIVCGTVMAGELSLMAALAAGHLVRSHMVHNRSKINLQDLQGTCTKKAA
Description: HMG-CoA reductase inhibitory activity (rat liver microsome). As to conditions: [3-^14 C]HMG-CoA, 37° C., 30 minutes, read-out: HMG-CoA reductase inhibitory activity IC50 (50% inhibition concentration). Format: biochemical, rat (Sprague-Dawley). The method, then:
[HMG-CoA reductase inhibitory activity]
(1a) Preparation of rat liver microsome
Liver microsomes was prepared by using Sprague-Dawley rats which freely take a general diet containing 2% cholestyramine and water for 2 weeks according to the report of Kuroda et al (Biochim. Biophys. Acta., 486, page 70, 1977). The microsome fraction obtained by centrifuging at 105000× g was washed with a solution containing 15 mM nicotinamide and 2 mM magnesium chloride (in 100 mM potassium phosphate buffer solution, pH 7.4) once. Then, thereto was added equal parts of the buffer solution containing nicotinamide and magnesium chloride to the weight of used liver. The mixture was homogenized, cooled to -80° C., and preserved.
(1b) Measurement of HMG-CoA reductase inhibitory activity
At 0° C., 100 μl of rat liver microsome preserved at -80° C. was melted and diluted with 0.7 ml of cool potassium phosphate buffer (100 mM, pH 7.4). Thereto was added 0.8 ml of 50 mM EDTA solution (the above-mentioned potassium phosphate buffer solution) and 0.4 ml of 100 mM dithiothreitol solution (the above-mentioned potassium phosphate buffer solution) and the mixture was maintained at 0° C. To 1.675 ml of the microsome solution was added 670 μl of 25 mM NADPH solution (the above-mentioned potassium phosphate buffer solution). […] By means of a scintillation counter, specific activity was measured.
On the technique in general: Liver microsomes are a subcellular fraction often used to study metabolism.

The test system of assay [3] is production of peroxidized lipids in a homogenate of rat brain. In words: Suppression of production of peroxidized lipids in a homogenate of rat brain (TBA method). Format: biochemical, rat (SD strain). As to conditions: 37° C., 30 minutes. How it is done:
[Suppression of production of peroxidized lipids in a homogenate of rat brain]
SD strain rats (body weight, about 200 g) were sacrificed by cutting down their heads, and the brains were taken out. The brains were homogenated with a 4-fold amount of 0.05 M phosphate-sodium chloride buffer (pH 7.4) and centrifuged at 1,000× g for 10 minutes. The supernatant was kept at -80° C. for storage.
The supernatant was diluted with a 2-fold amount of the same phosphate-sodium chloride buffer as above, and 0.45 ml of the dilution was combined with 30 μl of ethanol per se (vehicle) or ethanol solution containing a test compound, followed by incubation at 37° C. for 30 minutes. The reaction was terminated by addition of a solution of 0.1% butylhydroxytoluene (BHT) (20 μl) in 25% metaphosphoric acid (125 μl). After deproteinization, the peroxidized lipids in the supernatant were measured by the thiobarbituric acid (TBA) method according to the description by Ohkawa et al.: in Anal. Biochem., Vol. 95, page 351 (1979). The amount of peroxidized lipids produced was compared with that in the vehicle applied group and expressed in % control.

Where [4] appears, read: concentration of test compound 0.01 mM.
[5] abbreviates: concentration of test compound 0.1 mM.

As to `CC[C@H](C)C(=O)O[C@H]1CCC=C2C=C[C@H](C)[C@H](CC[C@@H]3C[C@@H](O)CC(=O)O3)[C@H]21` [Mevastatin], the inhibit cholesterol synthesis result in assay [1] is given as “inhibit cholesterol synthesis”.
In the case of `CC[C@H](C)C(=O)O[C@H]1C[C@H](O)C=C2C=C[C@H](C)[C@H](CC[C@@H](O)C[C@@H](O)CC(=O)O)[C@H]21` [Pravastatin], the inhibit cholesterol synthesis result in assay [1] is given as “inhibit cholesterol synthesis”.
As for `CC[C@H](C)C(=O)O[C@H]1C[C@@H](C)C=C2C=C[C@H](C)[C@H](CC[C@@H]3C[C@@H](O)CC(=O)O3)[C@H]21` [Lovastatin], in assay [2], the IC50 worked out at 0.024 µM. The inhibit cholesterol synthesis result in assay [1] was “inhibit cholesterol synthesis”.
For the molecule `CC(C)(C)c1cc(SC[C@@H](O)C[C@@H](O)CC(=O)O)cc(C(C)(C)C)c1O` [Compound No. 3, Sodium (3R,5S)-6-[(3,5-di-tert-butyl-4-hydroxyphenyl)thio]-3,5-dihydroxyhexanoate], the IC50 in assay [2] came out at 54 µM. For the same molecule, the “Inhibitory rate (% control)” value is 35.7 % control in assay [3] (setting [4]) and 94.9 % control in assay [3] (setting [5]).
On to `CC(C)(Sc1cc(C(C)(C)C)c(O)c(C(C)(C)C)c1)Sc1cc(C(C)(C)C)c(O)c(C(C)(C)C)c1` [Probucol], for which the results for the “Inhibitory rate (% control)” value in assay [3] (setting [4]) and in assay [3] (setting [5]) were 27.8 % control and 58.3 % control, respectively.
For the molecule `CCC(C)(C)C(=O)O[C@H]1C[C@@H](C)C=C2C=C[C@H](C)[C@H](CC[C@@H]3C[C@@H](O)CC(=O)O3)[C@H]21` [Simarastatin], in assay [1], the inhibit cholesterol synthesis result was “inhibit cholesterol synthesis”.

These data come from US5093363A, “2,4,6-substituted phenol derivatives” (priority 1989, dated 1992).
